Test results as given in ChEMBL document CHEMBL3351700, “Synthesis, GluN2B affinity and selectivity of benzo[7]annulen-7-amines” (Bioorg Med Chem, 2014).

What was measured:
Cavia porcellus = species: Cavia porcellus; assay: Displacement of [3H]-(+)-MK-801 from N-methyl D-aspartate receptor phencyclidine binding site in guinea pig brain cortex membranes at 1 uM after 150 mins by scintillation counting method; assay type: cell membranes
[1] = target: Glutamate receptor ionotropic, NMDA 2B (Homo sapiens, UniProt Q05586+Q13224); assay: Displacement of [3H]ifenprodil from human GluN2B expressed in mouse L(tk-) cells co-expressing GluN1a after 120 mins by scintillation counting method; assay type: cell-based
[2] = Displacement of [3H]DTG from sigma2 receptor in rat liver membranes after 180 mins by scintillation counting method; assay type: cell membranes, Membrane
[3] = target: Sigma non-opioid intracellular receptor 1 (Cavia porcellus, UniProt Q60492); assay: Displacement of [3H](+)-pentazocine from sigma1 receptor in guinea pig brain membranes after 180 mins by scintillation counting method; assay type: cell membranes, Membrane
Sigma non-opioid intracellular receptor 1, sequence (Q60492 whole entry): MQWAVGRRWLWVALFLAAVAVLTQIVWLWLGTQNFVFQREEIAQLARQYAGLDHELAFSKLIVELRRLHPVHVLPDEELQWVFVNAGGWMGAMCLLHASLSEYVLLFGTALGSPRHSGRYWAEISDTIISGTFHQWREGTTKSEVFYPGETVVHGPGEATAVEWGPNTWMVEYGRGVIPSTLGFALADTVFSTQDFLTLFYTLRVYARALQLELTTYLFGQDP

Glutamate receptor ionotropic, NMDA 2B, sequence (Q13224 whole entry, one chain of several): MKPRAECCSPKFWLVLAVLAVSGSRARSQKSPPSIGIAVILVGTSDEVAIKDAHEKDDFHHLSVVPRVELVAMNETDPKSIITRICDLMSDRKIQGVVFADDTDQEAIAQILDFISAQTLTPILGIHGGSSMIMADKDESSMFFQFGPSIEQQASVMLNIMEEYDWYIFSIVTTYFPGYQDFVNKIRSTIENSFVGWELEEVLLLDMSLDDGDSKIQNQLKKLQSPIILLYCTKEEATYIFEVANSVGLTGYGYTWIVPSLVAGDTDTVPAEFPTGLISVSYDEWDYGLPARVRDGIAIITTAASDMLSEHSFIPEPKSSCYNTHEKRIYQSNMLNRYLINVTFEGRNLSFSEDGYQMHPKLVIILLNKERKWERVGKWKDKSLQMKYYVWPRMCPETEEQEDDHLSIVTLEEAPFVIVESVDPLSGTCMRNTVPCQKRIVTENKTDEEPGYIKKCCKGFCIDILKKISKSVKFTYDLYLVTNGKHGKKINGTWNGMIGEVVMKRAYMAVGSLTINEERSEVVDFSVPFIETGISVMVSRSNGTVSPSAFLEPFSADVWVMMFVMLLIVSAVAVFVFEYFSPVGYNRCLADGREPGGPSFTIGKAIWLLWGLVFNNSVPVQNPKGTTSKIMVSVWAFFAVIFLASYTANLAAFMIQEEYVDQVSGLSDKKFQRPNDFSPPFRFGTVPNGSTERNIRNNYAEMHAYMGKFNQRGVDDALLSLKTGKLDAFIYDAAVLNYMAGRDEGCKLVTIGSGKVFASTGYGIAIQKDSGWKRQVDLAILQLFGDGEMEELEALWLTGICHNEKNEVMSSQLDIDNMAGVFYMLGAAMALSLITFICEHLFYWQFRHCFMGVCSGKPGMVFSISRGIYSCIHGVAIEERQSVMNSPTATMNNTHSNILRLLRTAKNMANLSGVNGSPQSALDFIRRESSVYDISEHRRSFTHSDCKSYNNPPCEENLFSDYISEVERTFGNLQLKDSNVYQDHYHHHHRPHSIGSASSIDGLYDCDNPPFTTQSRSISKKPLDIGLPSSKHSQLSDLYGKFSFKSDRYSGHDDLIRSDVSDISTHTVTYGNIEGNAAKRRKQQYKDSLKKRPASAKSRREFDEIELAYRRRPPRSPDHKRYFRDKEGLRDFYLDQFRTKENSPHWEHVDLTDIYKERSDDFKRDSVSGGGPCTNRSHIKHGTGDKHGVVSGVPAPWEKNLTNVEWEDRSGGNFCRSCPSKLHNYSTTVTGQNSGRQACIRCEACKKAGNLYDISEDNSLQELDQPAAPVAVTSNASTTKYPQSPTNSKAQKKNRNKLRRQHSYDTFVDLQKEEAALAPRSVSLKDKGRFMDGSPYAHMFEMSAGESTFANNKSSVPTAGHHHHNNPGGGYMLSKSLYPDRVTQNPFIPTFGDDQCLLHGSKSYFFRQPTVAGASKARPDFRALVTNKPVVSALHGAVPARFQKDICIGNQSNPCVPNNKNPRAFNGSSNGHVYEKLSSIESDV

Compound	inhibition (Cavia porcellus) [%]	Ki [1] [nM]	Ki [2] [nM]	Ki [3] [nM]
c1ccc(N2CCN(C3CCc4ccccc4CC3)CC2)cc1	5	12	200	182
c1ccc(CCCCNC2CCc3ccccc3CC2)cc1	2	17	55	216
c1ccc(CCNC2CCc3ccccc3CC2)cc1	0	20	198	22
COc1ccc2c(c1)CCN(CCCCc1ccccc1)CC2O (stereo unspecified)	22		554	
c1ccc(CCCNC2CCc3ccccc3CC2)cc1	0	16	27	150
c1ccc(CNC2CCc3ccccc3CC2)cc1	16	57	203	107

The next compounds have a lower Ki [2] than those just listed; values first:

inhibition (Cavia porcellus) [%]	Ki [1] [nM]	Ki [2] [nM]	Ki [3] [nM]	Compound
0	10	15	27	COc1ccc2c(c1)CCC(NCCCc1ccccc1)CC2 (stereo unspecified)
30	2.9	5.4	5.7	c1ccc(CC2CCN(C3CCc4ccccc4CC3)CC2)cc1
43	2.3	3	14	c1ccc([C@H]2CC[C@@H](NC3CCc4ccccc4CC3)CC2)cc1
11	6.9	18	22	c1ccc(C2CCN(C3CCc4ccccc4CC3)CC2)cc1
30	5.7	14	20	c1ccc([C@H]2CC[C@H](NC3CCc4ccccc4CC3)CC2)cc1
12	16	9.2	132	COc1ccc2c(c1)CCC(NCCCc1ccccc1)CC2O (stereo unspecified)
